Data from patent publication US20140374103A1, “TREATING AND RECYLCING OILFIELD WASTE WATER” (BAKER HUGHES INCORPORATED, priority 2013, published 2014).

Tested on: bacteria in oilfield waste water
Details: 10 mL of 30 vol % hydrogen peroxide to 250 mL raw oilfield waste water (Sample A and Sample B), room temperature, stirred; before vs after treatment; FIGS. 4 and 5
Description: The number density of the bacteria present in the oilfield waste water is determined before or after introduction of the biocide, the oxidizer, or a combination thereof. Determining the number density of the bacteria is accomplished in various manners. In an embodiment, the number density of the bacteria is determined by particle sizing such as by light scattering. In another embodiment, a small volume of oilfield water is disposed on an agar plate or slant tube and subjected to microbiological counting methods. Alternatively, the number density of the bacteria is determined by quantifying an amount of bacterial adenosine triphosphate (ATP) in a sample of the oilfield waste water, wherein the ATP is retrieved from living bacterial cells. The sample size is a portion or all of the oilfield waste water. […] The ATP quantification is accomplished by lysing the bacterial cells using an enzyme to release ATP into the sample of the oilfield waste water. An assay for the amount of ATP includes introducing a luminescent enzyme such as firefly luciferase to the sample and thereafter collecting luminescence from the luminescent enzyme. […] Thereafter, the number density of bacteria in the oilfield waste water is calculated from the amount of bacterial ATP. […] An aliquot of Sample A and Sample B was collected and subjected to ATP quantification before and after treatment with the hydrogen peroxide.

With OO [hydrogen peroxide] the “number density of bacteria in the treated water” value was “drastically decreases the number density of bacteria”.
